Where “and” joins values, the source holds several entries; their conditions need not be identical. Identical values can stand only once.
Tests used:
HuR = biological target: T1, HuR (Homo sapiens, UniProt Q15717); test: Surface plasmon resonance, direct binding to immobilized HuR; conditions: injected at 0–125 μM, 20°C; n = 2
T1 construct: made in house; host or cells: E. coli BL21 (DE3)
Procedure: Surface plasmon resonance (SPR) datasets were acquired using a BIACORE 3000 (GE Healthcare) at 20°C as described. Briefly, HuR was immobilized into a CM5 chip by amine-coupling chemistry and AZA-9 dissolved in buffer (20 mM HEPES pH 7.4, 150 mM NaCl, 3 mM EDTA, 0.05% p20 (v/v), 5% DMSO (v/v)) was injected into the flow cell at a flow rate of 60 μL/min. The mixtures complexes were allowed to associate for 400 sec and dissociate for 160 sec. SPR sensorgrams were generated using Scrubber2 (BioLogic Software, Australia).
Fig 1 AZA-9 inhibits HuR-ARE RNA interaction and binds directly to HuR. Titration of 2 nM ARE^c-fos and control RNA (a 16-nt fluorescein-labeled RNA oligo with random sequence) with (A) HuR and (B) HuR RRM1/2 (n = 3). (C) Dose-response curve of AZA-9 disrupting HuR-ARE^c-fos binding in FP assay using 10 nM HuR and 2 nM fluorescein-labeled ARE^c-fos (n = 3). (D) Dose-response curve of AZA-9 disrupting HuR RRM1/2-ARE^c-fos binding in FP assay using 50 nM HuR RRM1/2 and 2 nM fluorescein-labeled ARE^c-fos (n = 3). (E) SPR sensorgrams of AZA-9 injected at increasing concentrations of 0–125 μM into a flow cell containing immobilized HuR (n = 2). Structure of AZA-9 is shown on the right. The following were the negative controls used–random RNA in (A) and (B); and AZA-15 in (C) and (D). […]

Musashi-1 (Msi1) = Musashi-1 (Msi1) (Homo sapiens, UniProt O43347); test: Binding to Musashi-1 (unpublished data); conditions: authors' unpublished data
Musashi-1 (Msi1), sequence (O43347 whole entry, species assumed): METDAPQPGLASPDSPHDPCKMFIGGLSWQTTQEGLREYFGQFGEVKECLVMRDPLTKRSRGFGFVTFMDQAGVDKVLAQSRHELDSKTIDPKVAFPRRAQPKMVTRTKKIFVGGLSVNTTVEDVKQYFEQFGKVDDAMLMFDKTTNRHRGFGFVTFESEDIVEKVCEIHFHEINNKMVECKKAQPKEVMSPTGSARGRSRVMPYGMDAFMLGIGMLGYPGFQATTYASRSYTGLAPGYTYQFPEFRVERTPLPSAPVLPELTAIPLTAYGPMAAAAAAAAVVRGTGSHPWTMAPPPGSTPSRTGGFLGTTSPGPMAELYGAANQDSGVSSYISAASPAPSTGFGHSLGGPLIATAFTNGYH

[1] = biological target: T2, HuR RRM1/2-ARE^c-fos interaction (Homo sapiens, UniProt Q15717); test: FP competition assay, HuR RRM1/2-ARE^c-fos binding; assay type: biochemical; conditions: 50 nM HuR RRM1/2, 2 nM fluorescein-labeled ARE^c-fos; n = 3; read-out: IC50, disruption of HuR RRM1/2-ARE^c-fos binding
T2 construct: HuR RRM1/2 (residues 18–186); made in house; host or cells: E. coli BL21 (DE3)
T2 sequence (Q15717 18-186): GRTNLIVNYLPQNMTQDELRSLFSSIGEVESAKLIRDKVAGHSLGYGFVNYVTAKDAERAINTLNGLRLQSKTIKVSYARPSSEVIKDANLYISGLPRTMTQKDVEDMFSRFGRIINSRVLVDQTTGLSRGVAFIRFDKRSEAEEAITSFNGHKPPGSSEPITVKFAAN
Procedure: (§1) Synthetic RNA oligos were from Dharmacon. For FP assay, fluorescein-tagged ARE^Msi1 oligo derived from the 3’-UTR of Musashi RNA-binding protein 1 (Msi1) with the sequence 5’-GCUUUUAUUUAUUUUG-3’ and 11-mer ARE^c-fos RNA oligo (5’-AUUUUUAUUUU-3’) identical to the c-fos RNA sequence used in the crystal structure of HuR-RNA complex were used. For NMR studies, unmodified 11-mer ARE^c-fos RNA oligo [8] was used. Prior to the addition of RNA to the protein, the RNA was heated at 95°C for 5 min followed by immediate cooling on ice for 5 min. The azaphilone derivatives used herein were obtained by semisynthetic diversification of asperbenzaldehyde, which was purified from a strain of Aspergillus nidulans that was engineered to overproduce this compound as described elsewhere. Compounds were dissolved in dimethyl sulfoxide (DMSO) to form 10 mM stock solutions; for NMR studies, deuterated dimethyl sulfoxide (d6-DMSO) was used.
(§2) FP competition assay for screening and hit validation were carried out as reported previously. […] Measurements were taken using a BioTek Synergy H4 hybrid plate reader (Biotek, Winooski, VT) after incubating for 2 hours at room temperature. […] Percent inhibition was calculated by comparing to the DMSO (0% inhibition) and labeled free RNA only (100% inhibition) controls. […]

HuR RRM1/2 [2] = biological target: T3, HuR RRM1/2 (Homo sapiens, UniProt Q15717); test: NMR titration of 15N/ILV-labeled HuR RRM1/2; assay type: binding; conditions: equimolar concentration (1:1), 50 μM 15N HuR RRM1/2
T3 construct: HuR RRM1/2 (residues 18–186); made in house; host or cells: E. coli BL21 (DE3)
T3 sequence (Q15717 18-186): as above
Procedure: Proteins for NMR were dissolved in NMR buffer (100 mM NaCl, 10 mM NaPO4 pH 6.8, 10% D2O). ^15N NMR data were acquired using Bruker Avance 800 MHz spectrometer with a TCI cryoprobe. ILV ^13C NMR data were acquired using on a Bruker Avance III 600 MHz spectrometer. NMR data were acquired at 25°C, processed using NMRPipe and analyzed using NMRView. For ^15N and ILV chemical shift mapping, 80 μM ^15N/ILV-labeled HuR RRM1/2 was titrated with unlabeled ARE^c-fos RNA at increasing molar ratios of 1:0, 1:0.5, 1:1, and 1:1.7. AZA-9 was titrated at 1:1 and 1:2 molar ratios into 50 μM ^15N/ ILV-labeled HuR RRM1/2 in NMR buffer with 10% d6-DMSO. […] The ^15N titrations were monitored by acquiring 2D ^1H-^15N TROSY spectra, and the ILV titrations were monitored by acquiring 2D ^1H-^13C HSQC spectra. The published backbone amide assignments of HuR RRM1/2 (BMRB entry 26628) and the ILV assignments made herein were used in the NMR analysis.
The interaction of AZA-9 with HuR RRM1/2 was characterized by NMR methods. […] Specifically, residue R97 in the inter-domain linker region (whose intensity reduced by ~50% at equimolar concentration of AZA-9, Fig 4C) has been previously reported as important for RNA binding, RNA recognition and high affinity HuR-RNA complex formation. […]

[3] = biological target: T4, HuR-ARE^Msi1 interaction (full length HuR) (Homo sapiens, UniProt Q15717); test: FP competition assay, HuR-ARE^Msi1 binding; assay type: biochemical; conditions: 10 nM HuR, 2 nM fluorescein-labeled ARE^Msi1; n = 3; read-out: IC50, inhibition of HuR-ARE^Msi1 interaction
T4 construct: full length HuR (326 residues); made in house; host or cells: E. coli BL21 (DE3)
T4 sequence (Q15717 whole entry): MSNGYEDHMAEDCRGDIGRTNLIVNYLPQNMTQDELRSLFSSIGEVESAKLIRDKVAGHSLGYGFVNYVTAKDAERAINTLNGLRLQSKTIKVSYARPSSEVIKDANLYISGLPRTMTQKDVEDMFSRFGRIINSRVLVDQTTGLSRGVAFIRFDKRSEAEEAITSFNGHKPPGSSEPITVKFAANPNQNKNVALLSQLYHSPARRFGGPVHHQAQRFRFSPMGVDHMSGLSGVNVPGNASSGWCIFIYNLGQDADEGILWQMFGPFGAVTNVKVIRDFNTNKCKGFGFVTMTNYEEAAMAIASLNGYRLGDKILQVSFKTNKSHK
Procedure: Synthetic RNA oligos were from Dharmacon. For FP assay, fluorescein-tagged ARE^Msi1 oligo derived from the 3’-UTR of Musashi RNA-binding protein 1 (Msi1) with the sequence 5’-GCUUUUAUUUAUUUUG-3’ and 11-mer ARE^c-fos RNA oligo (5’-AUUUUUAUUUU-3’) identical to the c-fos RNA sequence used in the crystal structure of HuR-RNA complex were used. For NMR studies, unmodified 11-mer ARE^c-fos RNA oligo [8] was used. Prior to the addition of RNA to the protein, the RNA was heated at 95°C for 5 min followed by immediate cooling on ice for 5 min. […]
FP competition assay for screening and hit validation were carried out as reported previously. […] Measurements were taken using a BioTek Synergy H4 hybrid plate reader (Biotek, Winooski, VT) after incubating for 2 hours at room temperature. […] Percent inhibition was calculated by comparing to the DMSO (0% inhibition) and labeled free RNA only (100% inhibition) controls.
A FP-based high throughput screen on HuR and a 16-mer ARE^Msi1 RNA oligomer from the 3’-UTR of Musashi1 (Msi1) mRNA previously identified novel small molecule inhibitors of HuR-ARE interaction. […] Multi-dose effect was determined to verify the inhibition of HuR-ARE interaction. […]

[4] = biological target: T5, HuR-ARE^c-fos interaction (full length HuR) (Homo sapiens, UniProt Q15717); test: FP competition assay, HuR-ARE^c-fos binding; assay type: biochemical; conditions: 10 nM full length HuR, 2 nM fluorescein-labeled ARE^c-fos; n = 3; read-out: IC50, disruption of HuR-ARE^c-fos binding
T5 construct: full length HuR (326 residues); made in house; host or cells: E. coli BL21 (DE3)
T5 sequence (Q15717 whole entry): as above
Procedure: as §1, §2

HuR full length [5] = biological target: T6, HuR full length (UniProt Q15717 1-326); test: fluorescence polarization; 2 nM RNA; FP: room temperature, 2 h incubation in the competition assay, buffer not given (as in cited ref 22); NMR: 100 mM NaCl, 10 mM sodium phosphate pH 6.8, 10% D2O; conditions: protein: recombinant; single strand
T6 sequence (Q15717 whole entry): as above

HuR RRM1/2 [6] = biological target: HuR RRM1/2 (UniProt Q15717 18-186); test: as above; conditions: protein: recombinant; tags: N-terminal His6 (retained); single strand
HuR RRM1/2 (UniProt Q15717 18-186), sequence (Q15717 18-186): as the sequence (Q15717 18-186) above

HuR full length [7] = biological target: T6, HuR full length; test: fluorescence polarization; 10 nM HuR, 2 nM RNA; complex disrupted by AZA-9 (compound IC50 1.1 uM); FP: room temperature, 2 h incubation in the competition assay, buffer not given (as in cited ref 22); NMR: 100 mM NaCl, 10 mM sodium phosphate pH 6.8, 10% D2O; conditions: protein: recombinant; single strand

T1 sequence (Q15717 whole entry): as the sequence (Q15717 whole entry) above

For `CC[C@H](C)/C=C(C)/C=C/C1=CC2=C(Br)C(=O)C(C)(OC(C)=O)C(=O)C2=CO1` (stereo partly drawn) [AZA-9, azaphilone-9], the “SPR optical response on immobilized HuR (in words)” value (HuR) was “increased optical response in a dose-dependent manner”, the “binding to Musashi-1 (in words)” value (Musashi-1 (Msi1)) was “also binds” and the IC50 [1] was 7.4 µM. The “reduction of NMR peak intensity of residue R97” value (HuR RRM1/2 [2]) was ~ 50%, the IC50 [3] was 1.1 µM and the IC50 [4] was ~1.2 µM and 1.2 µM.

Molecule AUUUUUAUUUU (ssRNA) [AREc-fos (fluorescein)] has a Kd (HuR full length [5]) of 0.0033 µM and a Kd (HuR RRM1/2 [6]) of 0.0222 µM.

GCUUUUAUUUAUUUUG (ssRNA) [AREMsi1 (fluorescein)]: binds (HuR full length [7]).
